Data as given in patent US20160137714A1 (Thrasos Innovation, Inc., priority 2014, published 2016).
“And” between values parts separate entries of the source, which are not always exact repeats. Equal values may be shown once. Read-outs that look alike come from different tables or passages of the source. One block for each molecule: values may come before it. Positions of bridges follow the written chain, without caps; N, C: chain ends. Non-standard residues stand in square brackets, D forms with d. Residues, ends and D or L forms follow the SMILES beside them.

Experiments:
[1] = Pharmacokinetics of GPR-405 given at 1 mg/kg sc in CD1 mice; type: in vivo, mouse
Description: The study described herein involved single (mouse) or multiple (rat) blood collections after test article administration. Test articles are given by oral (PO), intravenous (IV), subcutaneous (SC) or intraperitoneal (IP) routes. All animals have a five day acclimatization period before dosing. Body weights are recorded prior to dosing. For mouse PK, 3 animals per group per time point are used (terminal bleed). For rats, multiple blood samplings per animal (adequately spaced in time) are taken. At the end of the study, all animals are euthanized by CO2 and final blood sample was collected via cardiac puncture.
Preparations are performed under a laminar flow hood using clean procedures. The formulations are kept at in a refrigerator set to maintain 4° C. before use. The dose volume for each animal is based on the most recent body weight measurement.
for PO administration, animal has either restricted access to food until the next day (12 h) before dosing or are allowed free access to food (depending on whether the PK will be done on fasted or fed animals). In all cases, animals has access to water ad libidum. PO dosing is done by gavage using a curved gavage needle (with rounded tip). All animals are observed for few seconds after injection to make sure there are no side effects. For IV administration, dosing (mice and rat) is done by the tail vein. Compound administration is done by slow (15-60 sec) bolus or by slow IV infusion (up to 1 h) using a calibrated syringe pump. For subcutaneous (dorsal region) and intraperitoneal injections, dosing is done with the appropriate needle and volume as per IACUC guidelines. GPR-405 was administered once by SC injection to each animal in the test group using a hypodermic needle attached to a syringe. No dose was administered to control animals.
Sampling is done via the tail, jugular or saphenous vein. Typical time for blood collection for PK are Pre, 5, 15, 30 minutes, 1 h, 2 h, 4 h, 8 h, 24 h. For mice, animals are terminated at each collection (cardiac puncture post-euthanasia). For rats, 200 μl are collected at each time point (max 3 time points per rat in 24 h). Plasma harvested from blood is mixed with 8.5% phosphoric acid (2% v/v of plasma). All plasma samples collected are stored in a freezer, set to maintain −80° C. until bioanalysis. At necropsy, tissues, organs and/or biological fluid are collected, as needed, for analysis. Urine collection is done using metabolic cages when required.
A stock solution of the test article is prepared at 250 μg/mL in DMSO. This solution is quantitatively added to blank mouse or rat plasma to generate a calibration curve. The linear range is from 0.25 to 250 ng/mL. A 175 μL aliquot of plasma is removed from each calibrant tube and processed using solid phase extraction (SPE). Study samples are first diluted with blank control mouse or rat plasma, and 175 μL is aliquoted for processing using SPE. An internal standard working solution (ISWS) is added to each calibrant and study sample (GPR-227 at 100 ng/mL in water). Plasma proteins are precipitated with 175 μL of methanol with 0.5% acetic acid (v/v). After centrifugation at 14,800 RPM for 10 minutes, a 300 μL aliquot of supernatant is diluted in water with 4% phosphoric acid (v/v). The entire diluted sample is extracted by SPE using a Waters Oasis HLB 96-well μElution plate. Samples are washed twice using a solution of acidified water (0.1% TFA, v/v) and 15% MeOH in water (v/v). Purified extracts are eluted into a 96-well collection plate using 40 μL of elution solvent. Standards and study samples are injected onto a Thermo Q-exactive LC-MS/MS system. Chromatographic separation is performed using a reversed-phase C18 HPLC column (Waters CSH C18, 50×2.1 mm, 2.5 μm). Analyte and internal standard are detected using the targeted selected ion monitoring (tSIM) scan mode. […]

[2] = Pharmacokinetic studies of THR-123 and GPR-294 i.v. and s.c. (FIG. 13, FIGS. 5-8); type: in vivo; conditions: in vivo; s.c. versus i.v., FIG. 13; read-out: bioavailable by sub-cutaneous administration
Description: A stock solution of THR-123 was prepared at 250 μg/mL in DMSO. This solution was quantitatively added to blank mouse plasma to generate a calibration curve. The linear range was from 0.25 to 250 ng/mL. A 175 μL aliquot of plasma from removed from each calibrant tube and processed using solid phase extraction (SPE). Study samples were first diluted with blank control mouse plasma, and 175 μL was aliquoted for processing using SPE. An internal standard working solution (ISWS) was added to each calibrant and study sample (GPR-227 at 100 ng/mL in water). Plasma proteins were precipitated with 175 μL of methanol with 0.5% acetic acid (v/v). After centrifugation at 14,800 RPM for 10 minutes, a 300 μL aliquot of supernatant was diluted in water with 4% phosphoric acid (v/v). The entire diluted sample was extracted by SPE using a Waters Oasis HLB 96-well μElution plate. Samples were washed twice using a solution of acidified water (0.1% TFA, v/v) and 15% MeOH in water (v/v). Purified extracts were eluted into a 96-well collection plate using 40 μL of elution solvent. Standards and study samples were injected onto a Thermo Q-exactive LC-MS/MS system. Chromatographic separation was performed using a reversed-phase C18 HPLC column (Waters CSH C18, 50×2.1 mm, 2.5 μm). Analyte and internal standard were detected using the targeted selected ion monitoring (tSIM) scan mode. Calibration curves were generated by using a weighted (1/concentration^2) linear regression of the peak area ratios (analyte/internal standard) versus the nominal concentration of the calibration standards. The concentration of the analyte in the study samples was determined by back-calculating the peak area ratios obtained using the linear regression and applying the appropriate dilution factors.
The study described herein involved single (mouse) or multiple (rat) blood collections after test article administration. Test articles are given by oral (PO), intravenous (IV), subcutaneous (SC) or intraperitoneal (IP) routes. All animals have a five day acclimatization period before dosing. Body weights are recorded prior to dosing. […]

[3] = mouse, in vivo, 1 mg/kg sc in CD1 mice

AUMC(0-t) ([1]; 1 mg/kg sc in CD1 mice): 196073 ng*min^2/ml | CL*F ([1]; 1 mg/kg sc in CD1 mice): 3.83 mL/min | CL/kg*F ([1]; 1 mg/kg sc in CD1 mice): 120 mL/min/kg | KeI ([1]; 1 mg/kg sc in CD1 mice): 0.04 min⁻¹ | Tmax ([1]; 1 mg/kg sc in CD1 mice): 5 min | Vd*F ([1]; 1 mg/kg sc in CD1 mice): 172.28 mL | Vss ([1]; 1 mg/kg sc in CD1 mice): 90.22 mL | Terminal T1/2 ([1]; 1 mg/kg sc in CD1 mice, based on terminal decay rate): 31.21 min | K′ (terminal decay rate) ([1]; 1 mg/kg sc in CD1 mice, log-linear fit of 30, 60, 240 min): 0.022 min⁻¹ | half-life ([1]; mouse, in vivo, sc, 1 mg/kg, 1 mg/kg sc in CD1 mice, based on terminal decay rate, read-out: Terminal T1/2): ~30 min | half-life ([1]; mouse, in vivo, sc, 1 mg/kg, 1 mg/kg sc in CD1 mice, read-out: Biological T1/2 (overall half-life)): ~16 min | Tmax ([1]; mouse, in vivo, sc, 1 mg/kg, 1 mg/kg sc in CD1 mice, read-out: Tmax): < 5 min | AUC(0-inf) [1, 3]: 142 ng·h/mL | AUC(0-t) [1, 3]: 142 ng·h/mL | Cmax [1, 3]: 504 ng/mL | MRT [1, 3]: 23.1 min | bioavailability ([1]; mouse, in vivo, sc, mice, preliminary data): ~60% | level at 5 min ([1]; mouse, plasma, 1 mg/kg sc, CD1 mice, 5 min, read-out: Mean Concentration): 504 ng/mL | level at 0.25 h ([1]; mouse, plasma, 1 mg/kg sc, CD1 mice, 15 min, read-out: Mean Concentration): 117 ng/mL | level at 0.5 h ([1]; mouse, plasma, 1 mg/kg sc, CD1 mice, 30 min, read-out: Mean Concentration): 68.8 ng/mL | level at 1 h ([1]; mouse, plasma, 1 mg/kg sc, CD1 mice, 60 min, read-out: Mean Concentration): 15.9 ng/mL | level at 4 h ([1]; mouse, plasma, 1 mg/kg sc, CD1 mice, 240 min, read-out: Mean Concentration): 0.4 ng/mL | Final Concentration (individual mouse) ([1]; plasma, 1 mg/kg sc, CD1 mice, 30 min, 1 mg/kg): 49.0 ng/mL and 88.6 ng/mL | Final Concentration (individual mouse) ([1]; plasma, 1 mg/kg sc, CD1 mice, 60 min, 1 mg/kg): 23.0 ng/mL and 11.9 ng/mL and 12.8 ng/mL | Final Concentration (individual mouse) ([1]; plasma, 1 mg/kg sc, CD1 mice, 240 min): 0.4 ng/mL
Structure (SMILES): CC(C)C[C@@H]1NC(=O)[C@H](C(C)C)NC(=O)[C@H](CCC(N)=O)NC(=O)[C@H](CO)NC(=O)[C@H](CO)NC(=O)[C@H](CC(N)=O)NC(=O)[C@H](Cc2ccccc2)NC(=O)[C@H](Cc2ccc(O)cc2)NC(=O)[C@H](Cc2ccc(O)cc2)NC(=O)[C@@H](N)CSSC[C@@H](C(=O)N[C@@H](CCCCN)C(=O)N[C@@H](CCCNC(=N)N)C(=O)N[C@H](Cc2ccc(O)cc2)C(=O)N[C@@H](CCCNC(=N)N)C(=O)N[C@@H](CO)C(=O)O)NC1=O [GPR-405, Cys-Tyr-Tyr-Phe-Asn-Ser-Ser-Gln-Val-Leu-Cys-Lys-Arg-(D)Tyr-Arg-Ser] (H-CYYFNSSQVLCKR[dY]RS-OH; disulfide 1-11)
clearance compared with renal clearance ([1]; 1 mg/kg sc in CD1 mice, mouse GFR approximately 10 ml/min/kg): about ten times greater than renal clearance | Final Concentration (individual mouse) ([1]; plasma, 1 mg/kg sc, CD1 mice, 5 min, 1 mg/kg): 596.4 ng/ml and 411.9 ng/ml and 62.4 (outlier) ng/ml | Final Concentration (individual mouse) ([1]; plasma, 1 mg/kg sc, CD1 mice, 15 min, 1 mg/kg): 114.2 ng/mL and 118.3 ng/mL and 118.4 ng/mL

bioavailability [2]: 81%
Structure (SMILES): CC(C)C[C@@H]1NC(=O)[C@H](C(C)C)NC(=O)[C@H](CC(N)=O)NC(=O)[C@H](CO)NC(=O)[C@H](CO)NC(=O)[C@H](CC(=O)O)NC(=O)[C@H](CC(=O)O)NC(=O)[C@H](Cc2ccccc2)NC(=O)[C@H](Cc2ccc(O)cc2)NC(=O)[C@@H](N)CSSC[C@@H](C(=O)N[C@@H](CCCCN)C(=O)N[C@@H](CCCCN)C(=O)N[C@@H](Cc2ccc(O)cc2)C(=O)N[C@@H](CCCNC(=N)N)C(=O)N[C@@H](CO)C(=O)O)NC1=O [THR-123, Cys-Tyr-Phe-Asp-Asp-Ser-Ser-Asn-Val-Leu-Cys-Lys-Lys-Tyr-Arg-Ser] (H-CYFDDSSNVLCKKYRS-OH; disulfide 1-11)
